Structures are written as SMILES.

In data set [1] the test system is photoreceptor layer of rats exposed to blue light. The data set can be described thus: Blue light (480 nm) photoreceptor damage in rats, retinal structure by histology. The format is in vivo, Sprague-Dawley rats. Set-up: key to Protective Activity: * means a protective effect of the photoreceptor layer to damage from blue light radiation.; **: Greater effectiveness is shown by increasing number of *'s.; ***: Greater effectiveness is shown by increasing number of *'s.; X means no such protective effect. The settings on record: for thickness of the photoreceptor layer: FIG. 2, oral 5 days before blue light, tazarotene 3 mg/kg/day, Compound A 10 mg/kg/day, compared with vehicle and antagonists; for thickness of the photoreceptor layer / Protective Activity: rats; for Protective Activity: oral dosing 5 days, last dose 2 hours before 8 hours blue light (480 nm, 12000 LUX). As for the experimental part: (§1) Adult male abino Sprague-Dawley rats (weight 400±30 g) were used for the following examples. After 18 hours of dark adaptation, animals were housed in specially designed acrylic cages and exposed to high intensity (12000 LUX) of blue fluorescent light (480 nm) for 8 hours. The light intensity was measured with a digital light meter. Each animal was housed separately. The room was maintained at 73° F. throughout the experiment. Animals were orally dosed with the appropriate retinoid or positive control, i.e. brimonidine, for 5 days with the last dose administered 2 hours before blue-light exposure. After the light exposure, the animals were kept in the dark room and recovered for an additional 5 days. Retinal function was evaluated with flash ERG analysis. Retinal structure was assessed by histology.
The following retinoids were evaluated for preventing damage to the photoreceptor layer of rats subjected to exposure to blue light.
(The RAR agonist, tazarotene, is an RARβ and […] retinioid. The RXR agonist also has some RAR agonist activity.)
In this Example, the above experiment is repeated with the RAR antagonist, which has antagonist activity at the α, β and […] retinoid receptor subtype dosed in combination with the RAR agonist and the RXR agonist.
The following retinoid compounds were tested in the above method with the results reported as shown.

Data set [2] has the same test system. The data set can be described thus: Blue light (480 nm) photoreceptor damage in rats, retinal function by flash ERG. The conditions noted are these: FIG. 3, ERG wave versus time, oral 5 days before blue light. It counts as in vivo, Sprague-Dawley rats. As for the experimental part: as §1
The test system of data set [3] is photoreceptors of rats and mice. The settings on record: Sparrow PNAS 2003, Sieving PNAS 2001; cited from earlier work.

Take `CC(/C=C/[C@@H]1C[C@]1(C)c1ccc2c(c1)C(C)(C)CCC2(C)C)=C\C(=O)O` [Compound A, 3,7-Dimethyl-6(S),7(S)-methano-7-[1,1,4,4-tetramethyl-1,2,3,4-tetrahydronaphth-7-yl]-2E, 4E-heptadienoic acid]: in data set [1], the “thickness of the photoreceptor layer” value is “greater than the photoreceptor layers of the animals dosed with the RAR or RXR antagonists” and the “Protective Activity” value is “**”. Moreover, the “protective effect to the photoreceptor layer measured by ERG” value in data set [2] was “show a protective effect”. `CCCOc1c(\C(CC)=C(F)/C=C/C(C)=C/C(=O)O)cc(C(C)C)cc1C(C)C` [Compound B, (2E,4E,6E)-7-(3,5-Diisopropyl-2-propoxy-phenyl)-6-fluoro-3-methyl-nona-2,4,6-trienoic acid]: in data set [1], the “Protective Activity” value is listed as “X”. `CCc1ccc(C2=CC(C)(C)Sc3ccc(C#Cc4ccc(C(=O)O)cc4)cc32)cc1` [Compound C]: in data set [1] (FIG. 5, RAR antagonist dosed in combination with the RAR agonist and the RXR agonist), the “effect of RAR antagonist on effectiveness of RAR agonist and RXR agonist” value was “severely diminishes the effectiveness of both the RAR agonist and the RXR agonists”. For the same compound, the “Protective Activity” value in data set [1] is recorded as “X”. On to `Cc1ccc(C2CC(C)(C)Oc3c(Br)cc(NC(=O)c4ccc(C(=O)O)c(F)c4)cc32)cc1` (centres unmarked) [Compound D, 2-Fluoro-4-[6′-(2″,2″-dimethyl-4″-tolylchromanyl)-8'-bromo]carbamoyl benzoic acid], for which the “Protective Activity” value in data set [1] is listed as “X”.

Consider `CC1(C)CCC(C)(C)c2c1cc(C(=O)Nc1cc(F)c(C(=O)O)c(F)c1)c(O)c2Cl` [Compound E, 4-[(4-Chloro-3-hydroxy-5,5,8,8-tetramethyl-5,6,7,8-tetrahydro-naphthalene-2-carbonyl)-amino]-2,6-difluoro-benzoic acid], for which, in data set [1], the “Protective Activity” value was “**”. Consider `CCC[C@]1(c2ccc3c(c2)C(C)(C)CCC3(C)C)C[C@H]1/C=C/C(C)=C/C(=O)O` [Compound F, 3-Methyl-7-propyl-6(S),7(S)-methano-7[1,1,4,4-tetrametyl-1,2,3,4-tetrahydro-7-yl]-2(E),4(E)-heptadienoic acid], for which the “Protective Activity” value in data set [1] is listed as “X”. On to `Brc1c(NC2=NCCN2)ccc2nccnc12` [brimonidine, reference compound], for which the “thickness of the photoreceptor layer” value in data set [1] is reported as “much greater than the thickness of the photoreceptor layers of the animals dosed with the vehicle alone”. In the case of `CC1=C(/C=C/C(C)=C/C=C/C(C)=C\C(=O)O)C(C)(C)CCC1` [isotretinoin, 13-cis retinoic acid], in data set [3], the “protection of photoreceptors from light damage” value is “can protect photoreceptors of rats and mice from light damage”.
